Assay results taken from patent US8349553B2, “Jasmonate based assays for identifying compounds that selectively inhibit mitochondrial bound hexokinases” (Ramot at Tel Aviv University Ltd., priority 2007, dated 2013).
“Also recorded” adds a separate entry of the source.

Key:
[1] = tested on: CT26 cells transfected with pcDNA3-HKII or pcDNA3; details: CT26; 3.75 μM; 3 hours exposure
Description: Cell death was determined by trypan blue exclusion. […] Alternatively, cytotoxicity was determined using hemacolor staining. Upon completion of a given experiment, cells were stained and the percentage of dead (detached) cells was determined spectrophotometrically.
CT26 cells were transfected with pcDNA3-HKII or pcDNA3, using FuGene HD transfection reagent (Roche, Basel, Switzerland), according to the manufacturer's instruction followed by selection using G418.
To examine the effect of hexokinase over-expression on methyl jasmonate action, CT26 cells were transfected with plasmids, pcDNA3-HKII or pcDNA3, encoding for hexokinase II over-expression and a control plasmid, respectively (Zaid, 2005). Cells were seeded in 96-well plates and allowed to adhere. Cells were exposed to methyl jasmonate for 60 minutes prior to ATP determination (FIG. […] 9B).

[2] = tested on: mitochondria-bound hexokinase (mitochondrial fraction from a CT-26 tumor); assay: Hexokinase detachment assay, mitochondrial fraction of CT-26 tumor; type: biochemical, murine; details: CT-26 tumor mitochondrial fraction; 30 minutes of incubation
Description: Mitochondrial fraction was prepared by mechanical lysis and differential centrifugation. All stages were performed on ice. Cells or extracted tissues were washed with PBS and disrupted by homogenization in extraction buffer (Sucrose 250 mM, HEPES-NaOH 10 mM, pH 7.2) freshly supplemented with 0.1 mM EDTA and Protease Inhibitors cocktail (Sigma). For each gram of cells or tissue, 4 volumes of extraction buffer were applied. The homogenate volume was doubled with the extraction buffer, and tissue and cell debris as well as nuclei were pelleted by centrifugation of 1,000 g for 10 minutes. The supernatant was further spun at 13,000 g for 10 minutes twice. Endoplasmic reticulum layer was removed. The pellet, designated as the mitochondrial fraction, was suspended in the appropriate buffer, depending on the assay for which the mitochondrial fraction was prepared. Mitochondrial fractions were used immediately or stored at −196° C.
To determine the amount of hexokinase detached from the mitochondrial fraction by different agents, mitochondria were incubated with the agent of interest and pelleted by centrifugation. Activity of hexokinase in the supernatant (i.e., activity of the detached hexokinase) was determined spectrophotometrically at 340 nm. The reaction couples the ADP formation by hexokinase, consuming the ADP for pyruvate formation by pyruvate kinase, and reducing the pyruvate with NADH by lactate dehydrogenase. Briefly, mitochondria were suspended in incubation buffer (HEPES pH 7.4 20 mM, Sucrose 0.25M, Glucose 10 mM, KCl5 mM, MgCl2 10 mM; 0.2 mg/test, 100 μL/test) and incubated as described below. […]
Methyl jasmonate perturbs mitochondria directly in a PTPC-dependent manner (Rotem, 2005). In order to determine whether methyl jasmonate is able to detach hexokinase from mitochondrial fraction isolated from CT-26 tumors, the activity of hexokinase in the supernatant of mitochondrial fraction treated for different time periods was measured. […] The activity of unbound hexokinase was measured and compared to the activity of spontaneously detached hexokinase (control).

purified rat brain HKI = biological target: T1, purified rat brain HKI (Rattus norvegicus, UniProt P05708); assay: Surface plasmon resonance analysis of jasmonate-HK interactions; type: binding; details: analyte injected at varying concentrations (MJ 0.375-6 mM); 25° C.
T1 construct: from tissue; host or cells: rat brain mitochondria
Description: Rat brain HK-I was purified as following, crude brain mitochondria containing tightly bound HK-I were incubated with 1.2 mM glucose-6-phosphate and 0.5 mM K-EDTA to release the enzyme into the soluble fraction. Further purification of HK-I was achieved by affinity chromatography on Cibacron Blue-agarose (Pharmacia). The purified enzyme was concentrated and washed in 0.5 mM K-EDTA, 10 mM glucose, 1 mM dithiothreitol and 10 mM K-Hepes, pH 7.8, using an Amicon device and a 50,000 Da molecular mass cut-off membrane (Spectrum; type C). The concentrated enzyme (up to 1 mg/ml; 30-60 units/mg) was frozen in liquid nitrogen and stored at −80° C. until use (Azoulay-Zohar, 2004).
Surface plasmon resonance (SPR) is an optical biosensor technique that measures molecular binding events at a metal surface by detecting changes in the local refractive index. SPR is the surface-sensitive technique ideal for studying interactions between immobilized biomolecules (ligands) and a solution-phase analyte. The biosensor response is directly proportional to the mass of the bound analyte. The advantage of SPR for investigation of small molecular weight analytes over conventional techniques such as fluorescence or enzyme-linked immunosorbent assay is detection of an analyte being label-free and direct, without the need for labeling of analyte or multistep detection protocols (sandwich assay). […]

[3] = tested on: mitochondrial fraction of mouse brain; assay: Mitochondrial swelling assay, mouse brain; type: biochemical; details: 1 mM
Description: (§1) Freshly isolated mitochondrial fraction was washed with extraction buffer to remove EDTA and resuspended in swelling buffer (Mannitol 220 mM, Sucrose 70 mM, Tris, pH 7.2, 150 mM, KH2PO4, pH 7.2, 0.2 mM; 0.2 mg in 100 μL) freshly supplemented with potassium succinate, pH 7.2, 5 mM. Every component was sodium-free. Optical density was monitored at the wave length of 540 nm for 2-5 minutes before the addition of the examined reagents, e.g. methyl jasmonate, and for additional 20 minutes afterwards.
(§2) In order to examine the consistency of the relationship between the ability of methyl jasmonate to detach bound hexokinase and mitochondrial damage, methyl jasmonate was tested in mouse brain in comparison to mouse liver. The comparison was performed due to known differences of mitochondrial hexokinase content between mouse brain vs. its liver. It is well established in the art that brain mitochondrial fraction is rich in bound hexokinase, while liver mitochondrial fraction is essentially devoid of it (Wilson, 1995). […] Mitochondrial fractions were incubated for either 10, 30 or 60 minutes at 37° C. The activity of unbound hexokinase was measured and compared to the activity of spontaneously (control) detached hexokinase. Consequently, the ability of methyl jasmonate to induce swelling in mitochondrial fraction isolated from mouse brain and liver was tested.

[4] = tested on: mitochondrial fraction of mouse liver; assay: Mitochondrial swelling assay, mouse liver; type: biochemical; details: 1 mM
Description: as §1, §2

hexokinase = assay: Hexokinase activity, agent added directly to the coupled assay mixture; type: biochemical; details: coupled pyruvate kinase/lactate dehydrogenase assay, 340 nm
[5] = Fingrut, 2002, 2005, Rotem; cited from earlier work

T1 sequence (P05708 whole entry): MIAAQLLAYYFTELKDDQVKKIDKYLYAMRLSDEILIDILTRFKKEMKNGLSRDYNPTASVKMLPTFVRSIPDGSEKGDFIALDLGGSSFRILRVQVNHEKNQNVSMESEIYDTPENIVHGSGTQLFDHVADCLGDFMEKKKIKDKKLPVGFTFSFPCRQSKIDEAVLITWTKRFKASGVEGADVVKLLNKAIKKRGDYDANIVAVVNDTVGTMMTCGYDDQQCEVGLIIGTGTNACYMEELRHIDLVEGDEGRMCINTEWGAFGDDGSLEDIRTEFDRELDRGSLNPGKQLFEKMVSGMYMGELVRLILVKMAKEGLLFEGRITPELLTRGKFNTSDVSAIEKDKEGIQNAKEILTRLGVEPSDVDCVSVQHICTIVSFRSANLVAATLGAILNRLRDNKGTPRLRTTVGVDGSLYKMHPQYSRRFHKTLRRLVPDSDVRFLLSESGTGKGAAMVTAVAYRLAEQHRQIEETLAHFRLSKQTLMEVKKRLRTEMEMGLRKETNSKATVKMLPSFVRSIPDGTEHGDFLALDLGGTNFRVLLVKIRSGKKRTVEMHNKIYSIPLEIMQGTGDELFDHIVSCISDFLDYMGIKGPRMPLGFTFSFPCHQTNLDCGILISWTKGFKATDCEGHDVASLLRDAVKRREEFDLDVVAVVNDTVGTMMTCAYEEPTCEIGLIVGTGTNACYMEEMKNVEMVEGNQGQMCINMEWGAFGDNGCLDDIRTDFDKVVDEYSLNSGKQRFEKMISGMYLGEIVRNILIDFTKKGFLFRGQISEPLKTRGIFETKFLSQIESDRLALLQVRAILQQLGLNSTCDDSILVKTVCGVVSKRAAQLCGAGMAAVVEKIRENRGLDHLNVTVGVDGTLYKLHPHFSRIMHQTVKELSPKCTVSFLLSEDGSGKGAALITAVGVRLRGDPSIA

Row | Structure (SMILES) | cytotoxicity (hemacolor), hexokinase II over-expressing vs. control cells [1] | detachment of hexokinase (activity of unbound hexokinase compared to control), dose dependence [2] | binding to immobilized hexokinase (SPR) (purified rat brain HKI) | mitochondrial swelling (optical density at 540 nm) [3] | mitochondrial swelling (optical density at 540 nm) [4] | influence on hexokinase activity when added directly to the assay mixture (hexokinase) | cytotoxicity relative to methyl jasmonate [5]
1 | CN[C@@H]1C[C@H]2O[C@@](C)([C@@H]1OC)n1c3ccccc3c3c4c(c5c6ccccc6n2c5c31)C(=O)NC4 [staurosporine] | similarly decreased by hexokinase II over-expression |  |  |  |  |  | 
2 | CC/C=C\C[C@H]1C(=O)CC[C@@H]1CC(=O)O [jasmonic acid] |  | did not show considerable detachment of hexokinase from mitochondrial fraction; also recorded: less effective than methyl jasmonate at detaching hexokinase from mitochondrial fraction | did not bind hexokinase at all | to a marginal extent | not in liver | neither methyl jasmonate nor jasmonic acid added directly to the assay mixture, influence hexokinase activity | lower cytotoxicity than methyl jasmonate
